Data from patent publication EP3064205A1, “Therapeutic use of isomeric forms of 2-(4-chlorophenyl)quinolin-4-yl)(piperidin-2-yl)methanol” (Glionova AB, priority 2015, dated 2016).
Read-outs that look alike come from different tables or passages of the source.

How the values were obtained:
Test in all cases: 3D clonogenic assay (PDX)
Type in all cases: cell-based, human
[1] = tested on: PAXF 2053; settings: PAXF 2053, Pancreas; for IC50: Homo sapiens
Experimental: (§1) The anti-tumor efficacy of S1 in the patient-derived tumor xenograft (PDX) tumor panel was assessed, where the efficacy of S1 in PDX tumor panel in the 96-well format, in 10 concentrations in duplicate was performed. Colony formation of tumor cell suspensions in a soft-agar matrix was observed and quantified. The output is IC50 values and dose response-relationships based on number of colonies in control and treatment wells, as identified by an automated image analysis algorithm. Stock solution of S1 was prepared in 100% DMSO at 10 mM concentration (stored at -20°C) and reused for each experiment. Compound final test concentrations: Dilution series ½ i.e.: 50µM, 15, 5, 1.5, 0.5, 0.15, 0.05, 0.015, 0.005 and 0.0015.
(§2) Tumor xenografts (also referred to as patient-derived tumor xenografts) were passaged as subcutaneous xenografts in NMRI nu/nu mice. Tumor xenograft were removed from mice under sterile conditions, mechanically disaggregated and subsequently incubated with an enzyme cocktail consisting of collagenase type IV (41 U/mL), DNase I (125 U/mL), hyaluronidase type III (100 U/mL) and dispase II (1.0 U/mL) in RPMI 1640 medium at 37°C for 60 - 120 minutes. Cells were passed through sieves of 100 µm and 40 µm mesh size and washed with RPMI 1640 medium. The percentage of viable cells was determined in a Neubauer-hemocytometer using trypan blue exclusion. Aliquots of the cells were frozen down, and stored in liquid nitrogen.
(§3) The clonogenic assay test was carried out in 96 well plate format. For each test a frozen aliquot of tumor cells prepared from tumor xenografts was thawed and assay plates were prepared as follows: each test well contained 3 layers of equal volume, 2 layers of semi-solid medium (bottom and top layer), and one layer of medium supernatant, with or without test compound. The bottom layer consisted of 0.05 mL/well Iscove's Modified Dulbecco's Medium (Invitrogen), supplemented with 20% (v/v) fetal calf serum (Sigma), 0.01% (w/v) gentamicin (Invitrogen) and 0.75% (w/v) agar (BD Biosciences). Tumor cells were added to 0.05 mL of the same culture medium supplemented with 0.4% (w/v) agar and plated onto the bottom layer. After 24 h, test compounds were added after serial dilution in DMSO and transfer in cell culture medium, and left on the cells for the duration of the experiment (continuous exposure, 0.05 mL drug overlay). Every dish included six untreated control wells and drug-treated groups in duplicate at 10 concentrations. Cultures were incubated at 37 °C and 7.5% CO2 in a humidified atmosphere for 8 to 13 days and monitored closely for colony growth using an inverted microscope. Within this period, ex vivo tumor growth lead to the formation of colonies with a diameter of >50 µm. At the time of maximum colony formation, counts were performed with an automatic image analysis system. 24 h prior to evaluation, vital colonies were stained with a sterile aqueous solution of 2-(4-iodophenyl)-3-(4-nitrophenyl)-5-phenyltetrazolium chloride (1 mg/mL, 100 µL/well). Sigmoidal concentration-response curves were fitted to the data points obtained for each tumor model using 4 parameter non-linear curve fit (Oncotest Warehouse Software). IC50 values are reported as relative IC50 values, being the concentration of test compound that give a response (inhibition of colony formation/viability) half way between the top and bottom plateau of the sigmoidal concentration-response curve (inflection point of the curve), or as absolute IC50 values, being the concentration of test compound at the intersection of the concentration-response curves with T/C = 50%. For calculation of mean IC50 values the geometric mean was used. Results are presented as mean graph plots or heat maps (individual IC50 values relative to the geometric mean IC50 value) over all cell lines as tested.

[2] = tested on: CXF 1729; settings: CXF 1729, Colorectal; for IC50: Homo sapiens
Experimental: as §1, §2, §3

[3] = tested on: RXF 1220; settings: RXF 1220, Renal; for IC50: Homo sapiens
Experimental: as §1, §2, §3

[4] = tested on: GXF 251; settings: GXF 251, Gastric; for IC50: Homo sapiens
Experimental: as §1, §2, §3

[5] = tested on: MEXF 1792; settings: MEXF 1792, Melanoma; for IC50: Homo sapiens
Experimental: as §1, §2, §3

[6] = tested on: LXFA 629; settings: LXFA 629, Lung Adeno; for IC50: Homo sapiens
Experimental: as §1, §2, §3

[7] = tested on: RXF 631; settings: RXF 631, Renal; for IC50: Homo sapiens
Experimental: as §1, §2, §3

[8] = tested on: CXF 94; settings: CXF 94, Colorectal; for IC50: Homo sapiens
Experimental: as §1, §2, §3

[9] = tested on: LXFL 1121; settings: LXFL 1121, Lung Large Cell; for IC50: Homo sapiens
Experimental: as §1, §2, §3

[10] = tested on: GXA 3023; settings: GXA 3023, Asian Gastric; for IC50: Homo sapiens
Experimental: as §1, §2, §3

[11] = tested on: PAXF 2045; settings: PAXF 2045, Pancreas; for IC50: Homo sapiens
Experimental: as §1, §2, §3

[12] = tested on: PAXF 1998; settings: PAXF 1998, Pancreas; for IC50: Homo sapiens
Experimental: as §1, §2, §3

IC50 ([1]; read-out: abs. IC50): 5.87 µM | IC50 ([1]; read-out: rel. IC50): 5.67 µM | IC50 ([2]; read-out: abs. IC50): 8.87 µM | IC50 ([2]; read-out: rel. IC50): 8.82 µM | IC50 ([3]; read-out: abs. IC50): 43.3 µM | IC50 ([3]; read-out: rel. IC50): 43.4 µM | IC50 ([4]; read-out: abs. IC50): 6.02 µM | IC50 ([4]; read-out: rel. IC50): 5.26 µM | IC50 ([5]; read-out: abs. IC50): 6.19 µM | IC50 ([5]; read-out: rel. IC50): 6.15 µM | IC50 ([6]; read-out: abs. IC50): 9.09 µM | IC50 ([6]; read-out: rel. IC50): 8.85 µM | IC50 ([7]; read-out: abs. IC50): 24.6 µM | IC50 ([7]; read-out: rel. IC50): 28.1 µM | IC50 ([8]; read-out: abs. IC50): 13.3 µM | IC50 ([8]; read-out: rel. IC50): 12.7 µM | IC50 ([9]; read-out: abs. IC50): 8.66 µM | IC50 ([9]; read-out: rel. IC50): 8.61 µM | IC50 ([10]; read-out: abs. IC50): 5.26 µM | IC50 ([10]; read-out: rel. IC50): 5.02 µM | IC50 ([11]; read-out: abs. IC50): 8.14 µM | IC50 ([11]; read-out: rel. IC50): 7.03 µM | IC50 ([12]; read-out: abs. IC50): 8.89 µM | IC50 ([12]; read-out: rel. IC50): 8.54 µM
Structure (SMILES): O[C@H](c1cc(-c2ccc(Cl)cc2)nc2ccccc12)[C@@H]1CCCCN1 [S1, (R)-(2-(4-chlorophenyl)quinolin-4-yl)((S)-piperidin-2-yl)methanol]
b (bottom plateau of concentration-effect curve) [1]: 18 | t (top plateau of concentration-effect curve) [1]: 101 | b (bottom plateau of concentration-effect curve) [2]: 8 | t (top plateau of concentration-effect curve) [2]: 104 | b (bottom plateau of concentration-effect curve) [3]: 0 | t (top plateau of concentration-effect curve) [3]: 99 | b (bottom plateau of concentration-effect curve) [4]: 34 | t (top plateau of concentration-effect curve) [4]: 111 | b (bottom plateau of concentration-effect curve) [5]: 5 | t (top plateau of concentration-effect curve) [5]: 99 | b (bottom plateau of concentration-effect curve) [6]: 26 | t (top plateau of concentration-effect curve) [6]: 108 | b (bottom plateau of concentration-effect curve) [7]: 0 | t (top plateau of concentration-effect curve) [7]: 91 | b (bottom plateau of concentration-effect curve) [8]: 8 | t (top plateau of concentration-effect curve) [8]: 98 | b (bottom plateau of concentration-effect curve) [9]: 9 | t (top plateau of concentration-effect curve) [9]: 101 | b (bottom plateau of concentration-effect curve) [10]: 30 | t (top plateau of concentration-effect curve) [10]: 90 | b (bottom plateau of concentration-effect curve) [11]: 22 | t (top plateau of concentration-effect curve) [11]: 95 | b (bottom plateau of concentration-effect curve) [12]: 38 | t (top plateau of concentration-effect curve) [12]: 104
